Here are results for three substances from US12691109B2, “Bifunctional aggregation-induced emission luminogen for monitoring and killing of multidrug-resistant bacteria” (The Hong Kong University of Science and Technology, priority 2018, dated 2026).

Test in all cases: Antibacterial activity, MIC
What all share (assay type): cell-based

One assay deals with MDR S. aureus. The note with it: clinical MDR isolate.
The test system of another assay is MDR S. epidermidis. The note with it: clinical MDR isolate.
The next assay deals with MDR E. coli. Particulars: clinical MDR isolate.
The subject of the next assay is S. aureus. Particulars: laboratory-sensitive strain.
The test system of another assay is K. pneumoniae. The note with it: laboratory-sensitive strain.
The next assay concerns MDR K. pneumoniae. The note with it: clinical MDR isolate.
In a further assay the test system is E. coli. The note with it: laboratory-sensitive strain.
A further assay has as its system S. epidermidis. The note with it: laboratory-sensitive strain.

For Penicilin, the “MIC, MDR S. aureus” value with MDR S. aureus stood at 64 µg/mL. In the assay with MDR S. epidermidis, the “MIC, MDR S. epidermidis” value is more than 32 µg/mL. Moreover, the “MIC, MDR E.coli” value in the assay on MDR E. coli is more than 128 µg/mL. Also, the “MIC, S. aureus” value with S. aureus was less than 2 µg/mL. Further, in the assay on K. pneumoniae, the “MIC, K. pneumoniae” value was found to be 32 µg/mL. The “MIC, MDR K. pneumoniae” value against MDR K. pneumoniae is more than 128 µg/mL. In the assay on E. coli, the “MIC, E.coli” value is less than 2 µg/mL. Further, the “MIC, S. epidermidis” value against S. epidermidis is less than 2 µg/mL.

In the case of Polymyxin, the “MIC, MDR S. aureus” value in the assay on MDR S. aureus was more than 128 µg/mL. In addition, the “MIC, MDR S. epidermidis” value in the assay with MDR S. epidermidis was more than 128 µg/mL. The “MIC, MDR E.coli” value in the assay with MDR E. coli was 32 µg/mL; in the assay on MDR E. coli (listed as polymyxin), more than 32 µg/mL. Also, in the assay with S. aureus, the “MIC, S. aureus” value is more than 128 µg/mL. The “MIC, K. pneumoniae” value in the assay on K. pneumoniae is less than 2 µg/mL. Besides, the “MIC, MDR K. pneumoniae” value with MDR K. pneumoniae is 64 µg/mL; with MDR K. pneumoniae (listed as polymyxin), more than 64 µg/mL. The “MIC, E.coli” value against E. coli came to 16 µg/mL. Further, the “MIC, S. epidermidis” value in the assay with S. epidermidis turned out to be 64 µg/mL.

As to Gentamicin, the “MIC, MDR S. aureus” value in the assay with MDR S. aureus is more than 128 µg/mL. Also, in the assay with MDR S. epidermidis, the “MIC, MDR S. epidermidis” value is less than 2 µg/mL. In the assay on MDR E. coli, the “MIC, MDR E.coli” value is more than 128 µg/mL. The “MIC, S. aureus” value against S. aureus was less than 2 µg/mL. Besides, the “MIC, K. pneumoniae” value with K. pneumoniae was less than 2 µg/mL. For the same substance, the “MIC, MDR K. pneumoniae” value in the assay on MDR K. pneumoniae was more than 128 µg/mL. The “MIC, E.coli” value with E. coli is less than 2 µg/mL. In the assay with S. epidermidis, the “MIC, S. epidermidis” value is less than 2 µg/mL.
